The conditions of assay [1]: Fenton reaction system; paramagnetic method; cited from earlier work.
In assay [2] the test system is cerebral ischemia-reperfusion model rats. As to the kind of experiment: Inflammatory factors in brain tissues in cerebral ischemia-reperfusion rats (overall statement). The conditions noted are these: 40 mg/kg.

As to `C[C@@H](CCC1(O)O[C@H]2C[C@H]3[C@@H]4CC[C@@H]5C[C@@H](O[C@@H]6O[C@H](CO)[C@H](O)[C@H](O)[C@H]6O[C@@H]6O[C@H](CO)[C@@H](O)[C@H](O)[C@H]6O)CC[C@]5(C)[C@H]4CC[C@]3(C)[C@H]2[C@@H]1C)CO[C@@H]1O[C@H](CO)[C@@H](O)[C@H](O)[C@H]1O` (stereo partly drawn) [Timosaponin BII, (25S)-26-O-β-D-glucopyranosyl-22-hydroxy-5β-furostane-3β,26-diol-3-O-β-D-glucopyranosyl(1→2)-β-D-galactopyranoside], the free radicals cleared in assay [1] is given as 57%. For the same compound, the “effect on levels of inflammatory factors IL-1β, TNF-α, IL-10, TGF-β (in words)” value in assay [2] is “significantly reduced the levels of these inflammatory factors”.

These data come from US7998936B2, “Use of timosaponin Bll in the preparation of a medicament or product for the prevention and treatment of stroke” (Institute of Radiation Medicine, Academy of Military …, priority 2004, dated 2011).
